Data published in ChEMBL document CHEMBL1145390, “Synthesis and preliminary biological characterization of new semisynthetic derivatives of ramoplanin” (J Med Chem, 2007).
Values after ≈ are worked out from the molar mass of the structure shown.

Assays:
Escherichia coli = assay: Antibacterial activity against Escherichia coli SKF-12140 after 24 hrs by broth microdilution method; format: functional
Enterococcus faecalis [1] = assay: Antibacterial activity against Enterococcus faecalis after 24 hrs by broth microdilution method; format: functional; details: read-out: MIC
Streptococcus pyogenes = assay: Antibacterial activity against Streptococcus pyogenes C203 after 24 hrs by broth microdilution method; format: functional; details: C203, 24 h
Candida albicans = assay: Antifungal activity against Candida albicans SKF-2270 after 24 hrs by broth microdilution method; format: functional
Staphylococcus aureus [2] = assay: Antibacterial activity against methicillin-resistant and vancomycin-intermediate resistant Staphylococcus aureus clinical isolate after 24 hrs by broth microdilution method; format: functional
Enterococcus faecalis [3] = assay: Antibacterial activity against vancomycin A-resistant Enterococcus faecalis after 24 hrs by broth microdilution method; format: functional; details: read-out: MIC
Enterococcus faecium [4] = assay: Antibacterial activity against Enterococcus faecium after 24 hrs by broth microdilution method; format: functional; details: read-out: MIC
[5] = Toxicity assessed as hemolysis in erythrocytes at 180 mg/L; format: cell-based, Erythrocyte; details: human; for hemolysis at 180 mg/L: erythrocytes, read-out: Activity
[6] = Toxicity assessed as hemolysis in erythrocytes at 90 mg/L; format: cell-based, Erythrocyte; details: human; for hemolysis at 90 mg/L: erythrocytes, read-out: Activity
Enterococcus faecium [7] = assay: Antibacterial activity against vancomycin A-resistant Enterococcus faecium clinical isolate after 24 hrs by broth microdilution method; format: functional; details: read-out: MIC
Staphylococcus aureus [8] = assay: Antibacterial activity against methicillin-resistant Staphylococcus aureus clinical isolate after 24 hrs by broth microdilution method; format: functional; details: read-out: MIC
Staphylococcus aureus [9] = assay: Antibacterial activity against vancomycin-intermediate resistant Staphylococcus aureus clinical isolate after 24 hrs by broth microdilution method; format: functional
Staphylococcus aureus [10] = assay: Antibacterial activity against Staphylococcus aureus Smith after 24 hrs by broth microdilution method; format: functional; details: read-out: MIC

SMILES | MIC (Escherichia coli; read-out: MIC) [mg/L] | MIC (Enterococcus faecalis [1]) [mg/L] | MIC (Streptococcus pyogenes; read-out: MIC) [mg/L] | MIC (Candida albicans; read-out: MIC) [mg/L] | MIC (Staphylococcus aureus [2]; read-out: MIC) [mg/L] | MIC (Enterococcus faecalis [3]) [mg/L] | MIC (Enterococcus faecium [4]) [mg/L] | hemolysis at 180 mg/L [5] [%] | hemolysis at 90 mg/L [6] [%] | MIC (Enterococcus faecium [7]) [mg/L] | MIC (Staphylococcus aureus [8]) [mg/L] | MIC (Staphylococcus aureus [9]) [mg/L] | MIC (Staphylococcus aureus [10]) [mg/L] | MIC (Escherichia coli) [mg/L] | MIC (Streptococcus pyogenes) [mg/L] | MIC (Candida albicans) [mg/L] | MIC (Staphylococcus aureus [2]) [mg/L] | Activity ([5]; erythrocyte) [%] | Activity ([6]; erythrocyte) [%]
CC(C)C[C@@H]1NC(=O)CNC(=O)[C@H](c2ccc(O)cc2)NC(=O)[C@@H]([C@@H](C)O)NC(=O)[C@H](c2ccc(O[C@H]3O[C@H](CO)[C@@H](O)[C@H](O)[C@@H]3O[C@H]3O[C@H](CO)[C@@H](O)[C@H](O)[C@@H]3O)cc2)NC(=O)[C@@H](CCCN)NC(=O)[C@H](Cc2ccccc2)NC(=O)[C@H]([C@@H](C)O)NC(=O)[C@@H](c2ccc(O)cc2)NC(=O)[C@H](c2ccc(O)cc2)NC(=O)[C@@H](C(C)C)NC(=O)[C@@H](CCCN)NC(=O)[C@@H](c2ccc(O)cc2)NC(=O)[C@@H](CNC(=O)[C@H](CC(N)=O)NC(=O)CCc2ccccc2)[C@@H](C(N)=O)OC(=O)[C@H](c2ccc(O)c(Cl)c2)NC(=O)[C@@H](C)NC1=O | > 32 | 2 (≈ 0.781 µM) | ≤ 0.03 | > 32 | 8 (≈ 3.12 µM) | 2 (≈ 0.781 µM) | 1 (≈ 0.39 µM) | 0 | 0 | 2 (≈ 0.781 µM) | 2 (≈ 0.781 µM) | 8 (≈ 3.12 µM) | 16 (≈ 6.24 µM) |  |  |  |  |  | 
COc1ccc(CC(=O)N[C@@H](CC(N)=O)C(=O)NC[C@@H]2C(=O)N[C@H](c3ccc(O)cc3)C(=O)N[C@H](CCCN)C(=O)N[C@H](C(C)C)C(=O)N[C@@H](c3ccc(O)cc3)C(=O)N[C@H](c3ccc(O)cc3)C(=O)N[C@@H]([C@@H](C)O)C(=O)N[C@@H](Cc3ccccc3)C(=O)N[C@H](CCCN)C(=O)N[C@@H](c3ccc(O[C@H]4O[C@H](CO)[C@@H](O)[C@H](O)[C@@H]4O[C@H]4O[C@H](CO)[C@@H](O)[C@H](O)[C@@H]4O)cc3)C(=O)N[C@H]([C@@H](C)O)C(=O)N[C@@H](c3ccc(O)cc3)C(=O)NCC(=O)N[C@@H](CC(C)C)C(=O)N[C@H](C)C(=O)N[C@@H](c3ccc(O)c(Cl)c3)C(=O)O[C@@H]2C(N)=O)cc1 | > 32 | 8 (≈ 3.1 µM) | 0.125 (≈ 0.0485 µM) | > 32 | 32 (≈ 12.4 µM) | 8 (≈ 3.1 µM) | 16 (≈ 6.21 µM) | 0 | 0 | 8 (≈ 3.1 µM) | 8 (≈ 3.1 µM) | 32 (≈ 12.4 µM) | 8 (≈ 3.1 µM) |  |  |  |  |  | 
CC(C)C[C@@H]1NC(=O)CNC(=O)[C@H](c2ccc(O)cc2)NC(=O)[C@@H]([C@@H](C)O)NC(=O)[C@H](c2ccc(O[C@H]3O[C@H](CO)[C@@H](O)[C@H](O)[C@@H]3O[C@H]3O[C@H](CO)[C@@H](O)[C@H](O)[C@@H]3O)cc2)NC(=O)[C@@H](CCCN)NC(=O)[C@H](Cc2ccccc2)NC(=O)[C@H]([C@@H](C)O)NC(=O)[C@@H](c2ccc(O)cc2)NC(=O)[C@H](c2ccc(O)cc2)NC(=O)[C@@H](C(C)C)NC(=O)[C@@H](CCCN)NC(=O)[C@@H](c2ccc(O)cc2)NC(=O)[C@@H](CNC(=O)[C@H](CC(N)=O)NC(=O)Cc2ccccc2)[C@@H](C(N)=O)OC(=O)[C@H](c2ccc(O)c(Cl)c2)NC(=O)[C@@H](C)NC1=O |  | 0.004 (≈ 0.00157 µM) |  |  |  | 0.004 (≈ 0.00157 µM) | 0.008 (≈ 0.00314 µM) |  |  | 0.004 (≈ 0.00157 µM) | 0.002 (≈ 0.000785 µM) | 0.008 (≈ 0.00314 µM) | 0.002 (≈ 0.000785 µM) | > 32 | 0.06 (≈ 0.0235 µM) | > 32 | 16 (≈ 6.28 µM) | 0 | 0
CC(C)C[C@@H]1NC(=O)CNC(=O)[C@H](c2ccc(O)cc2)NC(=O)[C@@H]([C@@H](C)O)NC(=O)[C@H](c2ccc(O[C@H]3O[C@H](CO)[C@@H](O)[C@H](O)[C@@H]3O[C@H]3O[C@H](CO)[C@@H](O)[C@H](O)[C@@H]3O)cc2)NC(=O)[C@@H](CCCN)NC(=O)[C@H](Cc2ccccc2)NC(=O)[C@H]([C@@H](C)O)NC(=O)[C@@H](c2ccc(O)cc2)NC(=O)[C@H](c2ccc(O)cc2)NC(=O)[C@@H](C(C)C)NC(=O)[C@@H](CCCN)NC(=O)[C@@H](c2ccc(O)cc2)NC(=O)[C@@H](CNC(=O)[C@H](CC(N)=O)NC(=O)c2cccc3ccccc23)[C@@H](C(N)=O)OC(=O)[C@H](c2ccc(O)c(Cl)c2)NC(=O)[C@@H](C)NC1=O | > 32 | 0.5 (≈ 0.193 µM) | ≤ 0.03 | > 32 | 8 (≈ 3.1 µM) | 0.5 (≈ 0.193 µM) | 1 (≈ 0.387 µM) | 25 | 14 | 1 (≈ 0.387 µM) | 2 (≈ 0.774 µM) | 8 (≈ 3.1 µM) | 1 (≈ 0.387 µM) |  |  |  |  |  | 
CCCCCCCCCCCCCC(=O)N[C@@H](CC(N)=O)C(=O)NC[C@@H]1C(=O)N[C@H](c2ccc(O)cc2)C(=O)N[C@H](CCCN)C(=O)N[C@H](C(C)C)C(=O)N[C@@H](c2ccc(O)cc2)C(=O)N[C@H](c2ccc(O)cc2)C(=O)N[C@@H]([C@@H](C)O)C(=O)N[C@@H](Cc2ccccc2)C(=O)N[C@H](CCCN)C(=O)N[C@@H](c2ccc(O[C@H]3O[C@H](CO)[C@@H](O)[C@H](O)[C@@H]3O[C@H]3O[C@H](CO)[C@@H](O)[C@H](O)[C@@H]3O)cc2)C(=O)N[C@H]([C@@H](C)O)C(=O)N[C@@H](c2ccc(O)cc2)C(=O)NCC(=O)N[C@@H](CC(C)C)C(=O)N[C@H](C)C(=O)N[C@@H](c2ccc(O)c(Cl)c2)C(=O)O[C@@H]1C(N)=O | > 32 | 4 (≈ 1.51 µM) | 4 (≈ 1.51 µM) | > 32 | 32 (≈ 12.1 µM) | 4 (≈ 1.51 µM) | 8 (≈ 3.03 µM) | 59 | 2 | 4 (≈ 1.51 µM) | 16 (≈ 6.06 µM) | 32 (≈ 12.1 µM) | 16 (≈ 6.06 µM) |  |  |  |  |  | 
CC(C)C[C@@H]1NC(=O)CNC(=O)[C@H](c2ccc(O)cc2)NC(=O)[C@@H]([C@@H](C)O)NC(=O)[C@H](c2ccc(O[C@H]3O[C@H](CO)[C@@H](O)[C@H](O)[C@@H]3O[C@H]3O[C@H](CO)[C@@H](O)[C@H](O)[C@@H]3O)cc2)NC(=O)[C@@H](CCCN)NC(=O)[C@H](Cc2ccccc2)NC(=O)[C@H]([C@@H](C)O)NC(=O)[C@@H](c2ccc(O)cc2)NC(=O)[C@H](c2ccc(O)cc2)NC(=O)[C@@H](C(C)C)NC(=O)[C@@H](CCCN)NC(=O)[C@@H](c2ccc(O)cc2)NC(=O)[C@@H](CNC(=O)[C@H](CC(N)=O)NC(=O)c2ccc(OCc3cccc(Cl)c3)cc2)[C@@H](C(N)=O)OC(=O)[C@H](c2ccc(O)c(Cl)c2)NC(=O)[C@@H](C)NC1=O | > 32 | 0.5 (≈ 0.187 µM) | 0.13 (≈ 0.0486 µM) | > 32 | 8 (≈ 2.99 µM) | 0.13 (≈ 0.0486 µM) | 0.5 (≈ 0.187 µM) | 100 | 25 | 0.25 (≈ 0.0935 µM) | 2 (≈ 0.748 µM) | 8 (≈ 2.99 µM) | 1 (≈ 0.374 µM) |  |  |  |  |  | 
CCCCCC(=O)N[C@@H](CC(N)=O)C(=O)NC[C@@H]1C(=O)N[C@H](c2ccc(O)cc2)C(=O)N[C@H](CCCN)C(=O)N[C@H](C(C)C)C(=O)N[C@@H](c2ccc(O)cc2)C(=O)N[C@H](c2ccc(O)cc2)C(=O)N[C@@H]([C@@H](C)O)C(=O)N[C@@H](Cc2ccccc2)C(=O)N[C@H](CCCN)C(=O)N[C@@H](c2ccc(O[C@H]3O[C@H](CO)[C@@H](O)[C@H](O)[C@@H]3O[C@H]3O[C@H](CO)[C@@H](O)[C@H](O)[C@@H]3O)cc2)C(=O)N[C@H]([C@@H](C)O)C(=O)N[C@@H](c2ccc(O)cc2)C(=O)NCC(=O)N[C@@H](CC(C)C)C(=O)N[C@H](C)C(=O)NC(c2ccc(O)c(Cl)c2)C(=O)O[C@@H]1C(N)=O (some centres undefined) | > 32 | 2 (≈ 0.791 µM) | 0.125 (≈ 0.0494 µM) | > 32 | 32 (≈ 12.7 µM) | 2 (≈ 0.791 µM) | 4 (≈ 1.58 µM) | 8 | 0 | 4 (≈ 1.58 µM) | 4 (≈ 1.58 µM) | 16 (≈ 6.33 µM) | 4 (≈ 1.58 µM) |  |  |  |  |  | 
CCCCCCC(=O)N[C@@H](CC(N)=O)C(=O)NC[C@@H]1C(=O)N[C@H](c2ccc(O)cc2)C(=O)N[C@H](CCCN)C(=O)N[C@H](C(C)C)C(=O)N[C@@H](c2ccc(O)cc2)C(=O)N[C@H](c2ccc(O)cc2)C(=O)N[C@@H]([C@@H](C)O)C(=O)N[C@@H](Cc2ccccc2)C(=O)N[C@H](CCCN)C(=O)N[C@@H](c2ccc(O[C@H]3O[C@H](CO)[C@@H](O)[C@H](O)[C@@H]3O[C@H]3O[C@H](CO)[C@@H](O)[C@H](O)[C@@H]3O)cc2)C(=O)N[C@H]([C@@H](C)O)C(=O)N[C@@H](c2ccc(O)cc2)C(=O)NCC(=O)N[C@@H](CC(C)C)C(=O)N[C@H](C)C(=O)N[C@@H](c2ccc(O)c(Cl)c2)C(=O)O[C@@H]1C(N)=O | > 32 | 0.5 (≈ 0.197 µM) | < 0.03 | > 32 | 8 (≈ 3.15 µM) | 0.5 (≈ 0.197 µM) | 1 (≈ 0.393 µM) | 1 | 2 | 1 (≈ 0.393 µM) | 1 (≈ 0.393 µM) | 4 (≈ 1.57 µM) | 1 (≈ 0.393 µM) |  |  |  |  |  | 
